The values below come from PMC11671411 (Oncology Research, 2024).

For this assay, the target named is T1, PI3KCD (Homo sapiens, UniProt O00329).
T1 construct: gene PIK3CD
The assay is described as follows: PI 3-Kinase (human) HTRF enzyme assay with the PI3KCD isoform. The format is biochemical. Background: Time-resolved FRET reads energy transfer from a long-lived donor to a nearby acceptor.

Structures are written as SMILES.

T1 sequence (O00329 whole entry): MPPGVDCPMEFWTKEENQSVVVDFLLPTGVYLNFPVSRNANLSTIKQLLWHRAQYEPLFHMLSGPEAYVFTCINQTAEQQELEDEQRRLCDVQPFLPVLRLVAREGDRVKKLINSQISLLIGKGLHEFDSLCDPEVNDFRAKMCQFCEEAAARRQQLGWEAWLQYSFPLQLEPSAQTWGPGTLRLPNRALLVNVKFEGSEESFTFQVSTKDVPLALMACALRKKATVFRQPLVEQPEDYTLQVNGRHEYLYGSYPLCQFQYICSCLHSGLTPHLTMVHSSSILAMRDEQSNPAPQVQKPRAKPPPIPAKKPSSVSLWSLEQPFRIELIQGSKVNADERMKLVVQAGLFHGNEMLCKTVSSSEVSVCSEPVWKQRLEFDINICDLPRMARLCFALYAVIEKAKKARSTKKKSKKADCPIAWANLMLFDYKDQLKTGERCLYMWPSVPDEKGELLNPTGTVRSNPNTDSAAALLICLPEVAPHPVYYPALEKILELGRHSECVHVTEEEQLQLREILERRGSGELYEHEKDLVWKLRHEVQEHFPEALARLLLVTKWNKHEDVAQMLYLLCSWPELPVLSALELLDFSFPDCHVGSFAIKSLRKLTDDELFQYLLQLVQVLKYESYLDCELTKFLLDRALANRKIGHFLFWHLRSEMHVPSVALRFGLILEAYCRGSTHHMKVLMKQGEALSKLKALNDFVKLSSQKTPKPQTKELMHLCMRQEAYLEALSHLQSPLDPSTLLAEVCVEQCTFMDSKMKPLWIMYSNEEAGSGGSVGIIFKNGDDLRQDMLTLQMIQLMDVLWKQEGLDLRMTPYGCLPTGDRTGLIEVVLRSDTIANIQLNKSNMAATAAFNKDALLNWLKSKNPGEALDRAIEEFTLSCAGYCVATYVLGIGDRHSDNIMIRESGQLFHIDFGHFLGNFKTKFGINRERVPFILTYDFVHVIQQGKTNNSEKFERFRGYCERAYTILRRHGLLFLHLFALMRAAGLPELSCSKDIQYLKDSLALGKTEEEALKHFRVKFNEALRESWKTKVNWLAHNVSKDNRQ

For orientation: IC50 means the concentration at which inhibition is half-maximal. A low value points to inhibition by little substance. `c1ccc2c(c1)c1ccccc1c1nc3c4ccccc4c4ccccc4c3nc21` [SBL-JP-0004, tetrabenzo[a,c,h,j]phenazine] gave an IC50 of 201 nM.
